Measured values published in paper PMC8930988, “The NSAID glafenine rescues class 2 CFTR mutants via cyclooxygenase 2 inhibition of the arachidonic acid pathway” (Scientific Reports, 2022).
Where a name gives a salt, the structure may show the parent alone.

Target: T1, cyclooxygenase 2 (COX2) (Homo sapiens, UniProt P35354)
T1 construct: gene PTGS2; recombinant COX-2 (kit)
T1 sequence (P35354 18-604): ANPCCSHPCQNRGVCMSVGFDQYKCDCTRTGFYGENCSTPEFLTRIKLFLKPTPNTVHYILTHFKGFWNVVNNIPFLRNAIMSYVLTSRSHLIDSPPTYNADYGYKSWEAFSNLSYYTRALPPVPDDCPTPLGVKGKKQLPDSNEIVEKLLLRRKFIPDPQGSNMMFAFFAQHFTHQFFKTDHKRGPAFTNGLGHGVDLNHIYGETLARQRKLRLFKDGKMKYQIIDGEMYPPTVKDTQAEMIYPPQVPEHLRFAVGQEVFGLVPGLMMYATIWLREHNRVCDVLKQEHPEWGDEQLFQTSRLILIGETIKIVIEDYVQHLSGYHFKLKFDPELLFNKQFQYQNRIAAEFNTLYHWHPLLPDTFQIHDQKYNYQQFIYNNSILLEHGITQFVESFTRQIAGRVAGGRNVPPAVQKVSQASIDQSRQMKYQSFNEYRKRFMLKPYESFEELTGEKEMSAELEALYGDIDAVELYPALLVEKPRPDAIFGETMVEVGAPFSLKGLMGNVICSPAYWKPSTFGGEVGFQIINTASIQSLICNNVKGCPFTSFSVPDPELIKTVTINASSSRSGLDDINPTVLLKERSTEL
Assay: COX activity assay with recombinant enzyme, […] compound (Fig. 4E)
Type: biochemical

Structure (SMILES): O=C(OCC(O)CO)c1ccccc1Nc1ccnc2cc(Cl)ccc12 (stereo not shown) [compound 37, 2,3-dihydroxypropyl 2-[(7-chloroquinolin-4-yl)amino] benzoate; hydrochloride]
- COX activity assay with recombinant enzyme, 10 μM compound (Fig. 4E): COX2 inhibition is required for glafenine-mediated CFTR correction and that glafenine interacts directly with COX2
